Laboratory results: ChEMBL document CHEMBL4673357, “Antimicrobial Furancarboxylic Acids from a Penicillium sp” (2020)

Legend:
Assay type in all cases: functional
Staphylococcus aureus = test: Antibacterial activity against Staphylococcus aureus ATCC 25923 assessed as reduction in microbial growth after 18 hrs by microbroth dilution method
Candida albicans = test: Antifungal activity against Candida albicans ATCC 10231 assessed as reduction in microbial growth after 18 hrs by microbroth dilution method
Escherichia coli = test: Antibacterial activity against Escherichia coli ATCC 35218 assessed as reduction in microbial growth after 18 hrs by microbroth dilution method

Row | Structure (SMILES) | MIC (Staphylococcus aureus) [mg/L] | MIC (Candida albicans) [mg/L] | MIC (Escherichia coli) [mg/L]
1 | COC(=O)C1=C(C)O[C@](C)(/C=C/CC[C@H](C)O)C1=O | 2.7 | 5.4 | 5.4
2 | COC(=O)C1=C(c2ccsc2C)O[C@](C)(/C=C/CC[C@@H](C)O)C1=O | 3.5 | 7 | 3.5
3 | CC/C=C/C=C/[C@@]1(C)OC(c2ccsc2C)=C(C(=O)OC)C1=O | 1.7 | 3.3 | 1.7
4 | CCCC1=C(C(=O)OC)C(=O)[C@@](C)(/C=C/CC[C@@H](C)O)O1 | 3 | 5.9 | 3
5 | C[C@@H]1[C@H](O)[C@@H](C)/C=C/C=C/C=C/C=C/C=C/C=C/C=C/[C@H](O[C@@H]2O[C@H](C)[C@@H](O)[C@H](N)[C@@H]2O)C[C@@H]2O[C@](O)(C[C@@H](O)C[C@@H](O)[C@H](O)CC[C@@H](O)C[C@@H](O)CC(=O)O[C@H]1C)C[C@H](O)[C@H]2C(=O)O [AMPHOTERICIN B] |  | 0.1 | 
6 | CCCC1=C(C(=O)OC)C(=O)[C@@](C)(/C=C/CC[C@H](C)O)O1 | 3 | 5.9 | 3
7 | COC(=O)C1=C(C)O[C@](C)(/C=C/CC[C@@H](C)O)C1=O | 2.7 | 5.4 | 5.4
8 | CCCC1=C(C(=O)OC)C(=O)[C@@](C)(/C=C/C=C/[C@@H](C)O)O1 | 2.9 | 4.4 | 2.9
9 | CC/C=C/C=C/[C@@]1(C)OC(c2cc(C(=O)O)sc2C)=C(C(=O)OC)C1=O | 1.9 | 3.8 | 0.9
10 | COC(=O)C1=C(c2ccsc2C)O[C@](C)(/C=C/C=C/[C@@H](C)O)C1=O | 3.5 | 7 | 7
11 | COC(=O)C1=C(c2ccsc2C)O[C@](C)(/C=C/C=C/[C@H](C)O)C1=O | 3.5 | 7 | 7
12 | CN[C@@H]1[C@H](O[C@H]2[C@H](O[C@H]3[C@H](O)[C@@H](O)[C@H](N=C(N)N)[C@@H](O)[C@@H]3N=C(N)N)O[C@@H](C)[C@]2(O)C=O)O[C@@H](CO)[C@H](O)[C@H]1O [STREPTOMYCIN] | 0.1 |  | 2.3
13 | CCCC1=C(C(=O)OC)C(=O)[C@@](C)(/C=C/C=C/[C@H](C)O)O1 | 2.9 | 4.4 | 2.9
14 | COC(=O)C1=C(c2ccsc2C)O[C@](C)(/C=C/CC[C@H](C)O)C1=O | 3.5 | 7 | 3.5
